Test results: patent publication US20230365566A1, “HETEROCYCLIC AMIDES AND THEIR USE FOR MODULATING SPLICING” (REMIX THERAPEUTICS INC., priority 2020, published 2023)

What was measured:
Type in all cases: cell-based
[1] = tested on: HTT mRNA canonical junction (CJ); assay: Splicing RT-qPCR assay, decrease of HTT canonical junction (CJ) mRNA; settings: A673 or K562 cells, 24 hours compound treatment, concentration having 50% response in CJ decrease
Description: (§1) Compounds described herein were used to modulate RNA transcript abundance in cells. The expression of a target mRNA was measured by detecting the formation of an exon-exon junction in the canonical transcript (CJ). A compound mediated exon-inclusion event was detected by observing an increase in formation of a new junction with an alternative exon (AJ). Real-time qPCR assays were used to detect these splicing switches and interrogate the potency of various compounds towards different target genes. A high-throughput real time quantitative PCR (RT-qPCR) assay was developed to measure these two isoforms of the mRNA (CJ and AJ) for an exemplary gene, HTT, together with a control housekeeping gene, GAPDH or GUSB or PPIA, used for normalization. Briefly, the A673 or K562 cell line was treated with various compounds described herein (e.g., compounds of Formula (I)). After treatment, the levels of the HTT mRNA targets were determined from each sample of cell lysate by cDNA synthesis followed by qPCR.
(§2) The A673 cell line was cultured in DMEM with 10% FBS. Cells were diluted with full growth media and plated in a 96-well plate (15,000 cells in 100 ul media per well). The plate was incubated at 37° C. with 5% CO2 for 24 hours to allow cells to adhere. An 11-point 3-fold serial dilution of the compounds was made in DMSO then diluted in media in an intermediate plate. Compounds were transferred from the intermediate plate to the cell plate with the top dose at a final concentration of 10 uM in the well. Final DMSO concentration was kept at or below 0.25%. The cell plate was returned to the incubator at 37° C. with 5% CO2 for an additional 24 hours.
(§3) The K562 cell line was cultured in IMDM with 10% FBS. For K562, cells were diluted with full growth media and plated in either a 96-well plate (50,000 cells in 50 uL media per well) or a 384-well plate (8,000-40,000 cells in 45 uL media per well). An 11-point 3-fold serial dilution of the compounds were made in DMSO then diluted in media in an intermediate plate. Compound was transferred from the intermediate plate to the cell plate with the top dose at a final concentration of 10 uM in the well. Final DMSO concentration was kept at or below 0.25%. Final volume was 100 uL for 96-well plate and 50 uL for 384-well plate. The cell plate was then placed in an incubator at 37° C. with 5% CO2 for 24 hours.
(§4) The cells were then gently washed with 50 uL-100 uL cold PBS before proceeding to addition of lysis buffer. 30 uL-50 uL of room temperature lysis buffer with DNAse I (and optionally RNAsin) was added to each well. Cells were shaken/mixed thoroughly at room temperature for 5-10 minutes for lysis to take place and then 3 uL-5 uL of room temperature stop solution was added and wells were shaken/mixed again. After 2-5 minutes, the cell lysate plate was transferred to ice for RT-qPCR reaction setup. The lysates could also be frozen at −80° C. for later use.
(§5) In some cases, a direct lysis buffer was used. An appropriate volume of 3× lysis buffer (10 mM Tris, 150 mM NaCl, 1.5%-2.5% Igepal and 0.1-1 U/uL RNAsin, pH 7.4) was directly added to either K562 or A673 cells in media and mixed by pipetting 3 times. The plates were then incubated at room temperature with shaking/rocking for 20-50 minutes to allow for lysis to take place. After this time, the cell lysate plate was transferred to ice to set up for the RT-qPCR reactions. The lysates could also be frozen at −80° C. for later use.
(§6) To set up 10 uL RT-qPCR reactions, cell lysates were transferred to 384-well qPCR plates containing the master mix according to the table below. The plates were sealed, gently vortexed, and spun down before the run. The volumes were adjusted accordingly in some instances where the reaction was carried in 20 uL. The table below summarizes the components of the RT-qPCR reactions:
(§7) The RT-qPCR reaction was performed using a QuantStudio (ThermoFisher) under the following fast cycling conditions. […]

[2] = tested on: HTT mRNA alternative junction (AJ); assay: Splicing RT-qPCR assay, increase of HTT alternative junction (AJ) mRNA; settings: A673 or K562 cells, 24 hours compound treatment, concentration having 50% response in AJ increase
Description: as §1, §2, §3, §4, §5, §6, §7

Target C CJ mRNA = assay: Gene panel canonical junction qPCR assay, Target C; settings: protocol of Example 42, read-out: Target C IC50 (decrease in CJ mRNA levels)
Description: as §1, §2, §3
(§8) The data analysis was performed by first determining the ACt vs the housekeeper gene. This ACt was then normalized against the DMSO control (AACt) and converted to RQ (relative quantification) using the 2^(−ΔΔCt) equation. The RQ were then converted to a percentage response by arbitrarily setting an assay window of 3.5 ΔCt for HTT-CJ and an assay window of 9 ΔCt for HTT-AJ. […] The percentage response was then fitted to the 4 parametric logistic equation to evaluate the concentration dependence of compound treatment. The increase in AJ mRNA is reported as AC50 (compound concentration having 50% response in AJ increase) while the decrease in CJ mRNA levels is reported as IC50 (compound concentration having 50% response in CJ decrease).
(§9) Additional studies were carried out for a larger panel of genes using the protocol provided above. The junction between flanking upstream and downstream exons was used to design canonical junction qPCR assays. At least one of the forward primer, reverse primer or the CY5-labeled 5′ nuclease probe (with 3′ quencher such as ZEN/Iowa Black FQ) was designed to overlap with the exon junction to capture the CJ mRNA transcript. BLAST was used to confirm the specificity of the probeset and parameters such as melting temperature, GC content, amplicon size, and primer dimer formation are considered during their design. Data for the decrease in CJ mRNA levels for three exemplary genes (HTT, SMN2, and Target C) analyzed in this panel are reported as IC50 (compound concentration having 50% response in CJ decrease).

SMN2 CJ mRNA = assay: Gene panel canonical junction qPCR assay, SMN2; settings: protocol of Example 42, read-out: SMN2 IC50 (decrease in CJ mRNA levels)
Description: as §1, §2, §3, §8, §9

HTT CJ mRNA = assay: Gene panel canonical junction qPCR assay, HTT; settings: protocol of Example 42, read-out: HTT IC50 (decrease in CJ mRNA levels)
Description: as §1, §2, §3, §8, §9

`Cc1cn2cc(NC(=O)c3ccc(N(C)C4CCN(C)CC4)c4cc(C)oc34)cc(F)c2n1` [Compound 200] gave an AC50 [1] of 1000 to 10000 nM, an AC50 [2] of 1000 to 10000 nM and an IC50 (Target C CJ mRNA) of 1000 to 10000 nM. For the same compound, the IC50 (SMN2 CJ mRNA) was < 100 nM and the IC50 (HTT CJ mRNA) was 1000 to 10000 nM.

In the case of `Cc1cn2cc(NC(=O)c3ccc(N(C)C4CC(C)(C)NC(C)(C)C4)c4cc(C)oc34)cc(F)c2n1` [Compound 201], the AC50 [1] is reported as > 10000 nM, the AC50 [2] is reported as > 10000 nM and the IC50 (Target C CJ mRNA) is reported as > 10000 nM. The IC50 (SMN2 CJ mRNA) was 1000 to 10000 nM and the IC50 (HTT CJ mRNA) was > 10000 nM.

With `Cc1cn2cc(NC(=O)c3ccc(N4CCC(N(C)C)C4)c4cc(C)oc34)cc(F)c2n1` (stereo not drawn) [Compound 202] the AC50 [1] was > 10000 nM, the AC50 [2] was 1000 to 10000 nM and the IC50 (Target C CJ mRNA) was > 10000 nM. For the same compound, the IC50 (SMN2 CJ mRNA) was < 100 nM and the IC50 (HTT CJ mRNA) was > 10000 nM.

Compound `Cc1cn2cc(NC(=O)c3ccc(N4CCC(NC(C)(C)C)C4)c4cc(C)oc34)cc(F)c2n1` (stereo not drawn) [Compound 203, 4-[3-(tert-butylamino)pyrrolidin-1-yl]-N-[8-fluoro-2-methylimidazo[1,2-a]pyridin-6-yl]-2-methyl-1-benzofuran-7-carboxamide] has an AC50 [1] of 1000 to 10000 nM, an AC50 [2] of 1000 to 10000 nM and an IC50 (Target C CJ mRNA) of 1000 to 10000 nM. The IC50 (SMN2 CJ mRNA) was 100 to 1000 nM and the IC50 (HTT CJ mRNA) was 1000 to 10000 nM.

In the case of `Cc1cn2cc(NC(=O)c3ccc(N4CCC(N5CCCC5)C4)c4cc(C)oc34)cc(F)c2n1` (stereo not drawn) [Compound 204, 4-[[1,3′-bipyrrolidin]-1′-yl]-N-[8-fluoro-2-methylimidazo[1,2-a]pyridin-6-yl]-2-methyl-1-benzofuran-7-carboxamide], the AC50 [1] is reported as 1000 to 10000 nM, the AC50 [2] is reported as 1000 to 10000 nM and the IC50 (Target C CJ mRNA) is reported as 1000 to 10000 nM. The IC50 (SMN2 CJ mRNA) was < 100 nM and the IC50 (HTT CJ mRNA) was 1000 to 10000 nM.

With `Cc1cn2cc(NC(=O)c3ccc(N4CC5(CNC5)C4)c4cc(C)oc34)cc(F)c2n1` [Compound 205] the AC50 [1] was 100 to 1000 nM, the AC50 [2] was 1000 to 10000 nM and the IC50 (Target C CJ mRNA) was 1000 to 10000 nM. The IC50 (SMN2 CJ mRNA) was < 100 nM and the IC50 (HTT CJ mRNA) was 100 to 1000 nM.

With `Cc1cn2cc(NC(=O)c3ccc(N4CC5(CN(C)C5)C4)c4cc(C)oc34)cc(F)c2n1` [Compound 206] the AC50 [1] was 1000 to 10000 nM, the AC50 [2] was 1000 to 10000 nM and the IC50 (Target C CJ mRNA) was > 10000 nM. For the same compound, the IC50 (SMN2 CJ mRNA) was < 100 nM and the IC50 (HTT CJ mRNA) was 1000 to 10000 nM.

`Cc1cn2cc(NC(=O)c3ccc(N4CCN(C)CC4)c4cn(C)nc34)cc(F)c2n1` [Compound 207] gave an AC50 [1] of 100 to 1000 nM, an AC50 [2] of 100 to 1000 nM and an IC50 (Target C CJ mRNA) of 1000 to 10000 nM. The IC50 (SMN2 CJ mRNA) was < 100 nM and the IC50 (HTT CJ mRNA) was 100 to 1000 nM.

In the case of `Cc1cn2cc(NC(=O)c3ccc(C4CCNCC4)c4cn(C)nc34)cc(F)c2n1` [Compound 208, N-[8-fluoro-2-methylimidazo[1,2-a]pyridin-6-yl]-2-methyl-4-(piperidin-4-yl)indazole-7-carboxamide], the AC50 [1] is reported as 100 to 1000 nM, the AC50 [2] is reported as 100 to 1000 nM and the IC50 (Target C CJ mRNA) is reported as 1000 to 10000 nM. For the same compound, the IC50 (SMN2 CJ mRNA) was < 100 nM and the IC50 (HTT CJ mRNA) was 100 to 1000 nM.
